From ChEMBL document CHEMBL1130686, “A new series of C3-aza carbocyclic influenza neuraminidase inhibitors: synthesis and inhibitory activity” (Bioorg Med Chem Lett, 1998) come the findings set out here.

For the experiment, the target named is Neuraminidase (Influenza A virus (A/Puerto Rico/8/1934(H1N1)), UniProt P03468). Put plainly: Inhibition of neuraminidase of influenza A.
`CCCN(CCC)[C@@H]1C=C(C(=O)O)C[C@H](N)[C@H]1NC(C)=O` gave an IC50 of 12 nM. This counts as double-digit nanomolar.
Next, `CC(=O)N[C@H]1[C@H](N(C)CCc2ccccc2)C=C(C(=O)O)C[C@@H]1N`: 100 nM; `CC(=O)N[C@H]1[C@H](N(C)C2CCCCC2)C=C(C(=O)O)C[C@@H]1N`: 200 nM.
Next, `CCC(CC)N(C)[C@@H]1C=C(C(=O)O)C[C@H](N)[C@H]1NC(C)=O`: 6 nM; `CCCN[C@@H]1C=C(C(=O)O)C[C@H](N)[C@H]1NC(C)=O`: 200 nM.
Next, `CCC(CC)N[C@@H]1C=C(C(=O)O)C[C@H](N)[C@H]1NC(C)=O`: 11 nM; `CCCCN(CC)[C@@H]1C=C(C(=O)O)C[C@H](N)[C@H]1NC(C)=O`: 85 nM; `CCCCN(C)[C@@H]1C=C(C(=O)O)C[C@H](N)[C@H]1NC(C)=O`: 180 nM.
Molecule `CCCN(CC)[C@@H]1C=C(C(=O)O)C[C@H](N)[C@H]1NC(C)=O` gave an IC50 of 90 nM.
The molecule `CCC(CC)C(=O)N[C@@H]1C=C(C(=O)O)C[C@H](N)[C@H]1NC(C)=O` returned an IC50 of 4000 nM.
In turn, `CC(=O)N[C@@H]1[C@@H](N)CC(C(=O)O)=C[C@H]1NC(=O)C(C)C` gave an IC50 of 6400 nM.
Next, `CCC(=O)N[C@@H]1C=C(C(=O)O)C[C@H](N)[C@H]1NC(C)=O`: 2700 nM.
